For orientation: IC50 means the midpoint of a concentration-inhibition curve.

Each structure is given as a SMILES string. The source made the active and inactive calls. No rule for the calls is given here.

Chain of Dual specificity protein phosphatase 1 (Homo sapiens) (P28562 whole entry, looked up): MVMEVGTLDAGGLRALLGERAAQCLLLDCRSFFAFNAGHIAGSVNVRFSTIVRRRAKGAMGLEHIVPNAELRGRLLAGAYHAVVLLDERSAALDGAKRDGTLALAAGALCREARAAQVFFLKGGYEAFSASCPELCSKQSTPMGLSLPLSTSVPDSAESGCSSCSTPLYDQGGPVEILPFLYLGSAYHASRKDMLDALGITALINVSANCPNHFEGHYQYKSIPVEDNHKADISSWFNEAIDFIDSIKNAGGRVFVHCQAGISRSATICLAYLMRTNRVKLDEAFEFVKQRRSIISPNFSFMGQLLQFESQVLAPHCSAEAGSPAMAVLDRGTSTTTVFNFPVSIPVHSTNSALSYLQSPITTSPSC

The assay concerns the target Dual specificity protein phosphatase 1 (Homo sapiens) (UniProt P28562). Put plainly: DUSP1 inhibition in catalase presence – biochemical, catalase added, active/probe assessment, dose response (AID 562). Particulars: recombinant MKP-1 phosphatase, fluorescence, with catalase.
For `COC(=O)c1ccccc1NC(=O)CN1C(=O)C2CCCN2c2ncc(Cl)cc21` (stereo unspecified), the IC50 was > 50 µM (inactive).
With `Cn1ncnc2c(=O)n(C)c(=O)nc1-2` the figure was > 50 µM (inactive).
`O=C1C=Cc2ccccc2C1=O`: the IC50 is 22.5 µM.
On to `Cc1cc(C)n2c(SCC(=O)N3CCN(S(=O)(=O)c4ccc(Cl)cc4)CC3)nnc2n1`, for which the IC50 was 49.9 µM.
For `Cc1cccc(N2CCN(C(=O)Cc3c(C(=O)O)[nH]c4ccc(Cl)cc34)CC2)c1C`, the half-inhibitory concentration (IC50) is 46.8 µM.
With `CCCCNC(=O)c1c(N)n(CCCOC)c2nc3ccccc3nc12`, the IC50 is > 50 µM (inactive).
Take `Cc1nc2c(C(=O)NCCC3=CCCCC3)c[nH]n2c(=O)c1Cl`: the IC50 was 49.9 µM.
In the case of `O=C1Nc2ccccc2SC(c2ccccc2)C1O` (stereo unspecified), the IC50 was 35.5 µM.
As for `CCOc1ccc(-c2cc3nc(C4CCN(C(=O)OC(C)(C)C)CC4)c(C(=O)O)cn3n2)cc1`, the IC50 is 27.7 µM.
In the case of `CCCCCNC(=O)c1ccc2c(=O)[nH]c3c(C(=O)NCC4CCCO4)sc(=S)n3c2c1` (stereo unspecified), the IC50 was 36.7 µM.
As for `CCn1c(SCC(=O)Nc2ccc3c(c2)c2ccccc2n3CC)nnc1-c1ccco1`, the IC50 is 21.1 µM.
Consider `Nc1c(N2CCCC2)cc(Cl)c2nonc12`, for which the IC50 was > 50 µM (inactive).
With `N#Cc1c(N)sc(=S)c2c1CCN(Cc1ccccc1)C2`, the IC50 is > 50 µM (inactive).
In the case of `O=C1C=C(NCc2ccc(Cl)c(Cl)c2)CC1`, the IC50 was > 50 µM (inactive).
On to `FC(F)(F)c1ccc(N2CCOCC2)c(Nc2nc3ccccc3n3cnnc23)c1`, for which the IC50 is > 50 µM (inactive).
For `COc1ccc(Cn2c(C)nc3c(c2=O)c2nc4ccccc4nc2n3Cc2ccco2)cc1`, the IC50 is 22 µM.
In the case of `CC1=C(/C=C/C(C)=C/C=C/C(C)=C/C(=O)O)C(C)(C)CCC1`, the half-maximal inhibitory concentration (IC50) was 48.6 µM.
For the compound `COc1ccc(Br)cc1/C=c1\sc2nc(-c3ccco3)nn2c1=O`, the IC50 was 17.2 µM.
Consider `CCOC(=O)c1ccc2c(c1)C1C=CCC1C(C(=O)O)N2` (stereo unspecified), for which the IC50 is 32.7 µM.
Take `Cc1nc2cc(-c3cccc(F)c3)nn2c(C)c1CCC(=O)N1CCC2(CC1)OCCO2`: the IC50 was > 50 µM (inactive).
As for `CCn1nc(-c2cccs2)nc2c(=O)n(C)c(=O)nc1-2`, the IC50 is > 50 µM (inactive).
Regarding `Cc1cc(NC(=O)c2ccc(S(=O)(=O)N3CCCC3)cc2)nc2c1c(=O)oc1ccccc12`, the IC50 is 26.1 µM.
Consider `CCn1nc(-c2ccccc2)nc2c(=O)n(C)c(=O)nc1-2`, for which the IC50 was > 50 µM (inactive).
The figure for `Cc1c(N=c2c(=O)c3ccccc3c2=O)c(=O)n(-c2ccccc2)n1C` is > 50 µM (inactive).
Turning to `O=C(Nc1ccccc1)c1ccc2nc(-c3ccco3)c(-c3ccco3)nc2c1`, the IC50 was 32 µM.
`N#Cc1c(N2CCCC2)nc(N)c2c(N)nc(N3CCCC3)cc12`: the IC50 was > 50 µM (inactive).
The figure for `O=C(OC1CCCCC1)c1ccc2c(c1)C1C=CCC1C(C(=O)O)N2` (stereo unspecified) is 17.5 µM; for `COc1ccc(-n2c(NC(=O)c3ccco3)c(C#N)c3nc4ccccc4nc32)cc1` it is > 50 µM (inactive); for `[O-]/[N+](=C\c1ccc(OC(F)F)cc1)c1ccccc1` it is > 50 µM (inactive).
Consider `Nc1nc2c(s1)CCc1c-2cnn1-c1ccccc1`, for which the IC50 is > 50 µM (inactive).
The figure for `CC(C)Cn1c(N)c(C(=O)COC(=O)c2cc(-c3ccco3)nc3ccccc23)c(=O)n(C)c1=O` is 25.5 µM; for `CC(=O)[C@@H]1[C@@H]2C(=O)N(c3ccc(F)c(Cl)c3)C(=O)[C@@H]2C2c3ccccc3C=CN21` (stereo partly specified) it is > 50 µM (inactive); for `[O-]/[N+](=C/c1ccc(F)cc1)c1ccccc1` it is > 50 µM (inactive).
As to `Cc1ccc(/C=C/C2=Cc3c(sc(NC(=O)CSc4n[nH]c(N)n4)c3C#N)C(C)(C)C2)o1`, the IC50 was 19.8 µM.
`Cc1cccc(NC(=O)c2cc(NC(=O)C3CCCCC3C(=O)O)ccc2N2CCCCC2)c1` (stereo unspecified): the IC50 is > 50 µM (inactive).
As for `Cc1ccc(-c2csc(NC(=O)c3ccno3)n2)cc1`, the IC50 was 49.8 µM.
As to `CCCCCC#CCC#CCC#CCC#CCCCC(=O)O`, the IC50 was 13.1 µM.
On to `CCOc1ccc2noc3c2c1C(=O)c1ccccc1-3`, for which the IC50 is 30.2 µM.
`CCOc1cc(/C=C(/C#N)c2ccc(F)cc2)ccc1OCc1ccc(C(=O)O)o1`: the IC50 was 41.8 µM.
`CCCCn1c(SCC(=O)c2ccc(OC)cc2OC)nc2cc(S(N)(=O)=O)ccc21`: the IC50 is 42.1 µM.
As to `N#Cc1c(NC(=O)c2ccc(Br)o2)n(-c2ccccc2)c2nc3ccccc3nc12`, the IC50 was > 50 µM (inactive).
With `[O-]/[N+](=C\c1ccncc1)c1ccccc1` the figure was 46.6 µM; with `CCc1ccc(NC(=O)CSc2nc3ccccc3c(=O)n2CCN2CCOCC2)cc1`, > 50 µM (inactive).
In the case of `CC(C)Sc1nc2sc3c(c2c2nnc(SCC(=O)NCc4ccco4)n12)CCCC3`, the IC50 is 22.7 µM.
For `COc1ccc(-c2cc3nc(C4CCN(C(=O)OC(C)(C)C)CC4)c(C(=O)O)cn3n2)cc1`, the IC50 was 36.3 µM.
`CC(C)(C)N1C(=O)Cc2c1nc(N)c1c(N)nc(N3CCCCC3CO)c(C#N)c21` (stereo unspecified): the IC50 was > 50 µM (inactive).
As to `COc1cc(/C=C(/C#N)c2ccc(F)cc2)ccc1OCc1ccc(C(=O)O)o1`, the IC50 was > 50 µM (inactive).
As for `COCCCn1c(N)c(C(=O)NCCC(C)C)c2nc3ccccc3nc21`, the IC50 was > 50 µM (inactive).
On to `CCCSc1nnc(NC(=O)c2sc3nc(-c4cccs4)ccc3c2N)s1`, for which the IC50 was 25.7 µM.
For `O=C(c1cccs1)c1no[n+]([O-])c1C(=O)c1cccs1`, the IC50 was 6.96 µM.
Take `O=C(Nc1ccc2nc(-c3ccco3)c(-c3ccco3)nc2c1)N1CCCCCC1`: the IC50 is 24.1 µM.
As for `Cc1ccc(C)n1-c1cccc(C(=O)O)c1`, the half-inhibitory concentration (IC50) is 16.9 µM.
With `COc1ccc2noc3c2c1C(=O)c1ccccc1-3`, the IC50 is 14.3 µM.
As for `O=C(NC1(O)C(=O)c2ccccc2C1=O)c1ccccc1`, the IC50 was > 50 µM (inactive).
As for `CCCCn1c(NC(=O)c2ccccc2)c(C#N)c2nc3ccccc3nc21`, the IC50 was 32.4 µM.
Regarding `O=C1c2ccccc2-c2onc3ccc(NCCCn4ccnc4)c1c23`, the IC50 was 35.2 µM.

(Values after PubChem BioAssay AID562 (University of Pittsburgh Molecular Library Screening Center, 2006).)
